Our source for the Kd values is publication PMC10193983 (Proceedings of the National Academy of Sciences of the …, 2023).

The test deals with MnMT4. The test can be described thus: biolayer interferometry. The class given is binding, Mycolicibacterium neoaurum.

Compound `Nc1ncnc2c1ncn2[C@@H]1O[C@H](CSCC[C@H](N)C(=O)O)[C@@H](O)[C@H]1O` [SAH] displayed a dissociation constant (Kd) of 0.0291 µM. As for `C[S+](CC[C@H](N)C(=O)[O-])C[C@H]1O[C@@H](n2cnc3c(N)ncnc32)[C@H](O)[C@@H]1O` (some centres unmarked) [SAM], the figure is 18.4 µM.
